Target: T1, human FASN (Homo sapiens, UniProt P49327)
T1 construct: was purified from SKBR3 cells using procedures modified from those in Jayakumar et al; endogenous in cells; host or cells: SKBR3 human breast cancer cells (ATCC); Endogenous enzyme purified by ammonium sulfate precipitation and a mono Q column
Experiment: FASN Scintillation Proximity Flashplate Assay
Type: biochemical
Settings: human FASN purified from SKBR3 cells; unstarred symbols
Procedure: Human FASN protein (SEQ ID NO. 1) was purified from SKBR3 cells using procedures modified from those in Jayakumar et al. PNAS 1995, 92:8695-8699. SKBR3 cells were obtained from ATCC and grown in DMEM high glucose medium supplemented with 10% FBS, 1 μg/mL bovine pancreas insulin, 100 U/mL penicillin and 100 µg/mL streptomycin. The confluent cells were trypsinized and washed three times with PBS buffer before frozen in liquid N2 and stored at −80° C. Frozen cells were thawed on ice and resuspended in lysis buffer (25 mM Tris-HCl, pH 7.0, 15 mM NaCl, 1 mM EDTA, and 1 mM DTT) with protease inhibitors. The cells were lysed by sonication, and the cell debris was removed by centrifugation at 20,000 rpm for 30 min. To the supernatant, neutralized saturated ammonium sulfate solution was added to a final concentration of 35%. The solution was left on ice for 1 hr, and the precipitated proteins were harvested by centrifugation at 20,000 rpm for 30 min. The proteins were redissolved in lysis buffer without NaCl and loaded on a mono Q column. Bound proteins were eluted with a linear gradient of NaCl in lysis buffer. Each fraction was analyzed by SDS-PAGE and FASN NADPH consumption assay. The fractions containing FASN were pooled and concentrated to 2-3 mg/mL. Glycerol was added to 20%, and the protein was frozen in liquid N2 and stored at −80° C.
Acetyl-coenzyme A, malonyl-coenzyme A, NADPH, bovine gamma globulin, and ORLISTAT were purchased from Sigma (St. Louis, Mo.). Tris(2-carboxyethyl) phosphine hydrochloride (TCEP) was purchased from Pierce Biotechnologies (Rockford, Ill.). [^3H]-acetyl-coenzyme A was purchased from Moravek Biochemicals (Brea, CA). FlashPlate™ PLUS phospholipid 96-well scintillant coated microplates were purchased from Perkin Elmer Life and Analytical Sciences (Shelton, CT). The method of the FASN Scintillation Proximity FlashPlate assay is similar to that described in Weiss and Glickman Assay Drug Dev Technol 2003, 1:161-6. In a 96-well polypropylene microplate, a dilution series (typical concentrations 60 nM-1.0 mM) of test compounds were prepared in DMSO followed by a 20-fold dilution into FASN assay buffer (50 mM potassium phosphate, pH 7.0, 1.0 mM EDTA, 0.01% NP-40), of which 5.0 μL each was transferred to a FlashPlate® PLUS 96-well plate and mixed with 35 μL FASN assay buffer plus 0.5 mg/mL bovine gamma globulin and 1 mM TCEP. FASN protein (10 μL, 10 nM) was added per well, and the microplate was incubated at 37° C. for 30 min. 10 μL of 20 mM NADPH was added, and the reaction was initiated by addition of […] substrate mixture to final concentrations of 1 nM FASN, 100 μM acetyl-coenzyme A, 6 μCi [^3H]-acetyl-coenzyme A, 300 μM malonyl-coenzyme A, 2 mM NADPH, 0.5 mg/mL bovine gamma globulin, and 1 mM TCEP in a volume of 100 μL per well. Assay plates were incubated for 2 hr at 37° C. and the reaction was stopped with 2 μL of 2.5 mM stock solution of ORLISTAT in DMSO to ˜50 μM. The plates were read in a Wallac 1450 Microbeta Plus liquid scintillation counter (Perkin Elmer, Waltham, Mass.), and counts per minute (CPM) were collected over 2 min. Each inhibitor well CPM was compared to the maximum FASN enzyme activity (Max) CPM and the background (Min) CPM, as measured by omission of FASN enzyme in the background well. % Inhibition values were calculated, and curves were fitted by a four-parameter logistic function to yield IC50 values:
Compounds were assayed as inhibitors of human FASN using the above-described FASN Scintillation Proximity Flashplate Assay (IC50; nM) or FASN NADPH Consumption Assay (*) (IC50; nM). The corresponding activity of the isolated compound is also provided along with the measured mass (ES^+).

T1 sequence (P49327 whole entry): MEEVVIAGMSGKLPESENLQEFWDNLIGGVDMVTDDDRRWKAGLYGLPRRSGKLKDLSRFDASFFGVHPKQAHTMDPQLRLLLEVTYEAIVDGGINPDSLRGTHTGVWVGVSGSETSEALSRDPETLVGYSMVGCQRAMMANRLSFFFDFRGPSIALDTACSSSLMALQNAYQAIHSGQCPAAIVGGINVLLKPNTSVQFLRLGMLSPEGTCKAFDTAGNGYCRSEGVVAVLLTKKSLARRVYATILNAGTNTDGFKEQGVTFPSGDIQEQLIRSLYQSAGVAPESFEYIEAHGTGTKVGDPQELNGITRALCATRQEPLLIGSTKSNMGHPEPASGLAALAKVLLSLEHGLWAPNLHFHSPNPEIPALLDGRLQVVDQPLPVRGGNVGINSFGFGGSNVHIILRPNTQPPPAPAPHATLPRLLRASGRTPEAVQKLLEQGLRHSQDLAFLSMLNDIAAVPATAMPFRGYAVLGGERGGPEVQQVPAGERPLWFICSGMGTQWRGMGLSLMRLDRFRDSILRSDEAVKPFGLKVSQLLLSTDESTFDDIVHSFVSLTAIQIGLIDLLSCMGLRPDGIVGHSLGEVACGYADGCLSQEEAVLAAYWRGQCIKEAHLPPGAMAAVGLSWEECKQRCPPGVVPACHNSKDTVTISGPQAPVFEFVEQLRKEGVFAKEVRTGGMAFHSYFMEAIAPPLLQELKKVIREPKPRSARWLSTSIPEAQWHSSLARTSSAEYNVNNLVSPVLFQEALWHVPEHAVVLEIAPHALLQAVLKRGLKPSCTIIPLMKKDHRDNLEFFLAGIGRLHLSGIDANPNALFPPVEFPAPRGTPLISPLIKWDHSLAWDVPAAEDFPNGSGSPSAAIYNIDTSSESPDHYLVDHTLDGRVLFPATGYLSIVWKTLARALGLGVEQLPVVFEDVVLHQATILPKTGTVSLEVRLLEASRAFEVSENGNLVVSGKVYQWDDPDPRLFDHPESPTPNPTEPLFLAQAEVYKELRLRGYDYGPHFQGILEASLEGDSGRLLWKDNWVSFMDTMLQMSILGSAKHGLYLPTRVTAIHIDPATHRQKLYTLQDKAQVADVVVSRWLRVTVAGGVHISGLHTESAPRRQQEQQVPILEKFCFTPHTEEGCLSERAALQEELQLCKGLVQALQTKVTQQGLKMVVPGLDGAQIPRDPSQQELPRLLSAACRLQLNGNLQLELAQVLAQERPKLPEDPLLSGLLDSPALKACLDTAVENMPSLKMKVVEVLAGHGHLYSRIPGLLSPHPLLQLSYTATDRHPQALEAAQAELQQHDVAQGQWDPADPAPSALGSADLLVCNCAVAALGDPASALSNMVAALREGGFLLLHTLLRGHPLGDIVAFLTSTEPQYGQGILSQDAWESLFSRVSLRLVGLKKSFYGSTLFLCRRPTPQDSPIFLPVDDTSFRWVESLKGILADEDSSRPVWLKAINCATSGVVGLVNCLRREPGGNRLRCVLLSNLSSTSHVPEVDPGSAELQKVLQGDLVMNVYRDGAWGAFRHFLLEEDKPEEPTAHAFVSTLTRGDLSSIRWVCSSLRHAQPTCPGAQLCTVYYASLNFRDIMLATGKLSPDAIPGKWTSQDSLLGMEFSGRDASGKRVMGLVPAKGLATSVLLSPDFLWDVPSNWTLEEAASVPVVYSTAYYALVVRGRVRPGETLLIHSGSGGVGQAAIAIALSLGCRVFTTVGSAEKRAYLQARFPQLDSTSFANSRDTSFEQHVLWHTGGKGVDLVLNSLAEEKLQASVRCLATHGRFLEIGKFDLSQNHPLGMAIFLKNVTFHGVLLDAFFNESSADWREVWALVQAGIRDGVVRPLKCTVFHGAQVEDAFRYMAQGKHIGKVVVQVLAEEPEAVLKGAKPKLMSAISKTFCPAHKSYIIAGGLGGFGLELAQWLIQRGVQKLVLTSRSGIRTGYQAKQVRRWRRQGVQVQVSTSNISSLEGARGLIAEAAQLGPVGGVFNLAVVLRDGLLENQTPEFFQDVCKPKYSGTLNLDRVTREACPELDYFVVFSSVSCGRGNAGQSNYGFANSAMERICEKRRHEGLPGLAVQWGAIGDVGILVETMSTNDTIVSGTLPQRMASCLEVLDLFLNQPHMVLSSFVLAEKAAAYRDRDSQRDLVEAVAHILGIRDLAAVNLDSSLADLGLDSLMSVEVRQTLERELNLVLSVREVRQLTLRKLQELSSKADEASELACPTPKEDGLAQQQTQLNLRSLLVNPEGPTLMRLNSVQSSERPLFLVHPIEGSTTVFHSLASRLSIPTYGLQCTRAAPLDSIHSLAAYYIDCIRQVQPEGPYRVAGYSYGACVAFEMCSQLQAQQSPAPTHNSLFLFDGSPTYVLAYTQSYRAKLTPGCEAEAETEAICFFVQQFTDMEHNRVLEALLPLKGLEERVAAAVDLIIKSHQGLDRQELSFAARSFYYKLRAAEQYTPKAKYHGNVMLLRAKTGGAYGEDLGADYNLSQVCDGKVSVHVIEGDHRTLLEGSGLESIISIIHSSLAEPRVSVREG

Structure (SMILES) | IC50
CCN(C(=O)n1nnn(-c2ccccc2OC)c1=O)c1ccc(C(=O)OCc2ccccc2)cc1 | 0.015 to 0.1 µM
CC(C)N(C(=O)n1nnn(-c2c(F)cccc2F)c1=O)c1cccc(C(=O)O)c1 | 0.015 to 0.1 µM
CC(C)N(C(=O)n1nnn(-c2c(F)cccc2F)c1=O)c1ccc(C(=O)OCc2ccccc2)cc1Oc1ccccc1 | < 0.015 µM
CCC(CC)N(C(=O)n1nnn(-c2c(F)cccc2F)c1=O)c1cccc(C(=O)O)c1 | 0.015 to 0.1 µM
CC(C)N(C(=O)n1nnn(-c2c(F)cccc2F)c1=O)c1ccc(C(=O)OCc2ccccc2)cc1F | < 0.015 µM
CC(C)N(C(=O)n1nnn(-c2c(F)cccc2F)c1=O)c1ccc(Cl)c(C(=O)O)c1 | < 0.015 µM
CCC(CC)N(C(=O)n1nnn(-c2c(F)cccc2F)c1=O)c1cccc(C(=O)OCc2ccccc2)c1 | < 0.015 µM
COc1cc(N(C(=O)n2nnn(-c3c(F)cccc3F)c2=O)C2CCCCC2)ccc1C(=O)O | < 0.015 µM
COc1cc(N(C(=O)n2nnn(-c3c(F)cccc3F)c2=O)C(C)C)ccc1C(=O)O | < 0.015 µM
CC(C)N(C(=O)n1nnn(-c2c(F)cccc2F)c1=O)c1ccc(Cl)c(C(=O)OCc2ccccc2)c1 | < 0.015 µM
O=C(NCc1ccccc1)c1cccc(N(C(=O)n2nnn(-c3c(F)cccc3F)c2=O)C2CCCCC2)c1 | < 0.015 µM
COc1cc(OC)c(N(C(=O)n2nnn(-c3c(F)cccc3F)c2=O)C(C)C)cc1C(=O)O | 0.015 to 0.1 µM
CCN(C(=O)n1nnn(-c2c(Cl)cccc2Cl)c1=O)c1ccc(OC)cc1 | 0.015 to 0.1 µM
CCN(C(=O)n1nnn(-c2c(Cl)cccc2Cl)c1=O)c1ccc(C(=O)O)c(Cl)c1 | < 0.015 µM
CCN(C(=O)n1nnn(-c2c(Cl)cccc2Cl)c1=O)c1ccc(C(=O)OC)cc1 | 0.015 to 0.1 µM
CCN(C(=O)n1nnn(-c2c(Cl)cccc2Cl)c1=O)c1ccc(Cl)c(C(=O)OCc2ccc(OC)cc2)c1 | < 0.015 µM
CCN(C(=O)n1nnn(-c2c(Cl)cccc2Cl)c1=O)c1ccc(C(=O)O)cc1Cl | < 0.015 µM
CCN(C(=O)n1nnn(-c2c(Cl)cccc2Cl)c1=O)c1cccc(C(=O)O)c1 | 0.015 to 0.1 µM
CCN(C(=O)n1nnn(-c2c(Cl)cccc2Cl)c1=O)c1ccc(C(=O)O)cc1 | < 0.015 µM
CCN(C(=O)n1nnn(-c2c(F)cccc2OC)c1=O)c1ccccc1Oc1ccccc1 | 0.015 to 0.1 µM
CCC(C)N(C(=O)n1nnn(-c2c(F)cccc2OC)c1=O)c1cccc(C(=O)O)c1 (centres unmarked) | < 0.015 µM

Continued, values first:

IC50 | Structure (SMILES)
< 0.015 µM | COc1ccc(N(C(=O)n2nnn(-c3ccccc3OC)c2=O)C(C)C)cc1C(=O)OCc1ccccc1
< 0.015 µM | COc1ccc(C(=O)O)cc1N(C(=O)n1nnn(-c2c(F)cccc2F)c1=O)C(C)C
< 0.015 µM | CC(C)N(C(=O)n1nnn(-c2c(F)cccc2F)c1=O)c1ccc(NS(C)(=O)=O)c(C(=O)O)c1
< 0.015 µM | COc1ccc(C(=O)O)cc1N(C(=O)n1nnn(-c2c(F)cccc2F)c1=O)C1CCCCC1
< 0.015 µM | CC(C)N(C(=O)n1nnn(-c2c(F)cccc2F)c1=O)c1ccc(N(S(C)(=O)=O)S(C)(=O)=O)c(C(=O)O)c1
< 0.015 µM | COc1ccc(N(C(=O)n2nnn(-c3c(F)cccc3F)c2=O)C2CCCCC2)cc1C(=O)O
< 0.015 µM | CC(C)N(C(=O)n1nnn(-c2c(F)cccc2F)c1=O)c1ccc(N(S(C)(=O)=O)S(C)(=O)=O)c(C(=O)OCc2ccccc2)c1
< 0.015 µM | O=C(O)c1ccc(N(C(=O)n2nnn(-c3c(F)cccc3F)c2=O)C2CCCCC2)cc1O
< 0.015 µM | CC(C)N(C(=O)n1nnn(-c2c(F)cccc2F)c1=O)c1ccc(N)c(C(=O)OCc2ccccc2)c1
< 0.015 µM | CC(C)N(C(=O)n1nnn(-c2c(F)cccc2F)c1=O)c1ccc(NC(=O)OC(C)(C)C)c(C(=O)O)c1
< 0.015 µM | O=C(O)c1cc(N(C(=O)n2nnn(-c3c(F)cccc3F)c2=O)C2CCCCC2)ccc1O
< 0.015 µM | CC(C)N(C(=O)n1nnn(-c2c(F)cccc2F)c1=O)c1ccc(NC(=O)OC(C)(C)C)c(C(=O)OCc2ccccc2)c1
< 0.015 µM | CC(C)N(C(=O)n1nnn(-c2c(F)cccc2F)c1=O)c1ccc(C(=O)O)cc1F
< 0.015 µM | COc1cc(C(=O)O)cc(N(C(=O)n2nnn(-c3c(F)cccc3F)c2=O)C(C)C)c1

From US9346769B2, “Tetrazolones as inhibitors of fatty acid synthase” (Infinity Pharmaceuticals, Inc., priority 2010, dated 2016)
